How the values were obtained:
APCE/FAP = biological target: T1, APCE/FAP (Homo sapiens, UniProt Q12884); test: APCE/FAP inhibition constants (Ki) with Tic-Pro-AFC substrate; assay type: biochemical; details: substrate Tic-Pro-AFC
T1 construct: absence of an about 26-residue amino terminal peptide constituting the transmembrane and intracytosolic domains; from tissue
T1 sequence (Q12884 24-760 limits assumed): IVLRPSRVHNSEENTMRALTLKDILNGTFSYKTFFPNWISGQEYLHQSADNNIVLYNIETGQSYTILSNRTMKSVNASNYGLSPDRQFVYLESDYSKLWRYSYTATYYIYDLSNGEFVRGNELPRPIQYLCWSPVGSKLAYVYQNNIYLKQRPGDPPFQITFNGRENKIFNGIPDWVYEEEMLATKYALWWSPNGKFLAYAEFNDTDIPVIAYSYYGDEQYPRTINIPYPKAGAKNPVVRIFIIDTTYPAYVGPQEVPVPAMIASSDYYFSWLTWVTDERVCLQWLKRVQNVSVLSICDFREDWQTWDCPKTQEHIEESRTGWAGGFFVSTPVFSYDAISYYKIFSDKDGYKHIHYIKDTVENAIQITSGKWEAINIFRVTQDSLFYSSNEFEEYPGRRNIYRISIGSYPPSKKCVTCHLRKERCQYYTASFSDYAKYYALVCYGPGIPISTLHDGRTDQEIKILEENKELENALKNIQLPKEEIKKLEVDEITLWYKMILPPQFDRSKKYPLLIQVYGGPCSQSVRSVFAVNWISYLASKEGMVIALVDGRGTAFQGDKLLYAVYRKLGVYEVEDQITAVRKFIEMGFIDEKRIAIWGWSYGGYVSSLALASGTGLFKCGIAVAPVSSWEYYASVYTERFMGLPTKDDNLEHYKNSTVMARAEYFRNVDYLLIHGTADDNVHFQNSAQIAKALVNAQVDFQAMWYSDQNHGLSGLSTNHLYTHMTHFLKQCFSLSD
Description: For accurate assessment of kinetic parameters, saturating concentrations of substrate were used. For standard curves, dilutions of AFC (7-amino-4-trifluoromethylcoumarin) were prepared in the same assay buffer and corresponding fluorescence was measured.

[1] = tested on: human lung adenocarcinoma epithelial cells; test: Lung cancer xenografts in nude mice; assay type: in vivo
Description: Mice were given a 50 μl injection into each hind leg consisting of human lung adenocarcinoma epithelial cells (2×10^6 cells) suspended in Matrigel™. After ten days the tumors had grown to an estimated 40 mm^3, so M83 treatment was initiated (day 0 in graph). For the M83 treatment group, mice were given a daily intraperitoneal injection of 26.5 micrograms of M83 dissolved in 20 microliters of sterile saline. The mice of the control group were given an intraperitoneal injection of 20 microliters of sterile saline. […] The treatment groups consisted of three mice each with two tumors per mouse.

Ki (APCE/FAP): 5.7 nM
SMILES: CC(=O)N[C@@H](CCCNC(=N)N)C(=O)NCCOCCOCC(=O)N[C@H](C)C(=O)N1CCC[C@H]1B(O)O [Compound M83, acetyl-Arg-AEEA-(D)Ala-(L)boroPro]
tumor growth ([1]; daily intraperitoneal 26.5 micrograms, nude mice, versus saline control): failed to progress
average tumor volume ([1]; day 28 of treatment versus day zero): no greater than on day zero
tumors completely disappeared ([1]; six tumors in treatment group, 28 days): one of the six tumors

— patent US9688722B2, “Substrates and inhibitors of prolyl oligopeptidase and methods of use” (The Board of Regents of the University of Oklahoma, priority 2012, dated 2017)
